In ChEMBL document CHEMBL4406848, “Novel water soluble BODIPY compounds: Synthesis, photochemical, DNA interaction, topoisomerases inhibition and photodynamic activity properties” (Eur J Med Chem, 2019):

Columns and labels:
[1] = Induction of singlet oxygen generation in DMSO solution assessed as singlet oxygen quantum yield by measuring reduction in DPBF irradiated with 650 nanometer laser light; type: functional
[2] = Induction of singlet oxygen generation in TBS solution assessed as singlet oxygen quantum yield by measuring reduction in ADMA irradiated with 650 nanometer laser light; type: functional

Compound: CN(C)c1ccc2nc3ccc(=[N+](C)C)cc-3sc2c1
- Activity [1]: 0.57
- Activity [2]: 0.52
